What was measured:
Type in all cases: cell-based
LC3B = assay: Autophagy induction in macrophages, LC3B immunoblotting
Excerpt: Microtubule-associated protein 1A/1B-light chain 3 (LC3) is a soluble protein that is distributed ubiquitously in mammalian tissues and cultured cells (reviewed in Methods Mol. Biol. 445, 77-88 (2008). During autophagy, autophagosomes engulf cytoplasmic components, including cytosolic proteins and organelles. Concomitantly, a cytosolic form of LC3 (LC3-I) is conjugated to phosphatidylethanolamine to form LC3-phosphatidylethanolamine conjugate (LC3-II), which is recruited to autophagosomal membranes. Autophagosomes fuse with lysosomes to form autolysosomes, and intra-autophagosomal components are degraded by lysosomal hydrolases. At the same time, LC3-II in autolysosomal lumen is degraded. Thus, lysosomal turnover of the autophagosomal marker LC3-II reflects starvation-induced autophagic activity, and detecting LC3 by immunoblotting or immunofluorescence is an indicator of autophagy and autophagy-related processes, including autophagic cell death.
(§1) For these studies, macrophages were exposed to rapamycin 100 nM (a known inducer of autophagic flux), proteins were extracted and subjected to immunoblotting.
During autophagy, LC3B (LC3B-I) forms LC3B-phosphatidylethanolamine conjugate (LC3B-II), which is recruited to autophagosomal membranes. When there is autophagic flux there is lipidation of LC3B-I that results in conversion of LC3B-II. Thus, during autophagic flux the relative quantity of LC3B-II is increased compared to LC3B-I.

[1] = system: Sequestome 1/p62 (SQSTM1); assay: Autophagic flux in macrophages, SQSTM1/p62 immunoblotting; conditions: Compound A 1 and 2 μM, rapamycin 100 nM, immunoblot
Method: as §1
In addition, the inventors looked at another marker of autophagic flux (sequestosome 1, also called SQSTIM1 or p62). During active autophagy, SQSTIM1 is degraded (decreased).

CD4 Tcm = assay: In vitro culture assay of sorted CD4 Tcm, phenotype by flow cytometry; conditions: 10 d incubation with rhIL-15; compared to control experiments
Method: (§2) PBMC were stained with monoclonal antibodies directed against CD4, CD3, CD45RA, CCR7, CD62L, CD122, CD95, according to standard protocols. After 20 minutes, CCR7+ CD45RA+ naïve CD4 T cells, CCR7+ CD45RA− central-memory CD4 T cells (CD4 Tcm), CCR7− CD45RA− CD4 T cells, CCR7− CD45RA+ terminally-differentiated CD4 T cells (CD4 Ttd) and CCR7+ CD45RA+ CD62L+ CD95+ CD122+ T memory stem cell CD4 T cells (CD4 Tscm) were live sorted in a specifically designated biosafety cabinet (Baker Hood), using a FACS Aria cell sorter (BD Biosciences) at 70 pounds per square inch. For phenotypic characterization, cells were additionally stained with CCR5 or CXCR4 antibodies, or Annexin V, and acquired on a LSRII flow cytometer (BD Biosciences). Data were analyzed using FlowJo software (Treestar).
(§3) Selected CD4 T cell subsets were isolated by cell sorting, labeled cells with 2 μM CFSE for 7 min at 37° C., and incubated with rhIL-15 (25 ng/ml; Peprotech) for 10 d in the presence or absence of Compound C, (6S,9S,9aS)-N-benzyl-6-(4-hydroxybenzyl)-2,9-dimethyl-4,7-dioxo-8-(quinolin-8-ylmethyl)octahydro-1H-pyrazino[2,1-c][1,2,4]triazine-1-carboxamide (Prism Biolabs). Afterwards, cells were harvested and phenotypically characterized by flow cytometry. […]

HIV = HIV replication in macrophages, HIV p24 antigen released into culture supernatants; conditions: macrophages pretreated 24 hours; infection monitored 10 days; concentrations 100 pM to 2 μM
Method: For these experiments, peripheral blood mononuclear cells (PBMCs) were isolated from HIV seronegative donors and differentiated into macrophages for 7-10 days using methods previously described (J Biol Chem 286: 18890-18902 (2011); PLoS Pathogens 8(5):e1002689 pp 1-13 (2012); PLoS Pathogens 8(11):e1003017 (2012)). The macrophages were pretreated for 24 hours with Compound C, which is the β-catenin inhibitor (6S,9S,9aS)-N-benzyl-6-(4-hydroxybenzyl)-2,9-dimethyl-4,7-dioxo-8-(quinolin-8-ylmethyl)octahydro-1H-pyrazino[2,1-c][1,2,4]triazine-1-carboxamide. Macrophages were treated with Compound C at increasing concentrations and productive infection was monitored for 10 days by detection of HIV p24 antigen released into the culture supernatants.

CD4 Tscm = assay: In vitro culture assay of sorted CD4 Tscm, phenotype by flow cytometry; conditions: 10 d incubation with rhIL-15; compared to control experiments
Method: as §2, §3

SMILES	induction of autophagy (LC3B; 1 and 2 μM)	levels of LC3B II and LC3B I relative to negative control (LC3B; Compound A 2 μM, rapamycin 100 nM, immunoblot)	amount of LC3B II and LC3B I relative to negative control (LC3B; Compound A 1 and 2 μM, rapamycin 100 nM, immunoblot)	SQSTM1 (p62) levels relative to negative control [1]	differentiation of Tcm into more mature CCR7− CD62L− CD4 T cell populations (CD4 Tcm)	HIV replication (HIV p24 antigen) (HIV)	differentiation of Tscm into more mature CCR7− CD62L− CD4 T cell populations (CD4 Tscm)
C[C@H]1[C@H]2N(C(=O)CN(C)N2C(=O)NCc2ccccc2)[C@@H](Cc2ccc(OP(=O)(O)O)cc2)C(=O)N1Cc1cccc2cccnc12 [Compound A, 4-(((6S,9S,9aS)-1-(benzylcarbamoyl)-2,9-dimethyl-4,7-dioxo-8-(quinolin-8-ylmethyl)octahydro-1H-pyrazino[2,1-c][1,2,4]triazin-6-yl)methyl)phenyl dihydrogen phosphate]	induces autophagy	greatly reduced	increased amount of LC3B II and decreased amount of LC3B I	reduced			
C[C@H]1[C@H]2N(C(=O)CN(C)N2C(=O)NCc2ccccc2)[C@@H](Cc2ccc(O)cc2)C(=O)N1Cc1cccc2cccnc12 [Compound C, (6S,9S,9aS)-N-benzyl-6-(4-hydroxybenzyl)-2,9-dimethyl-4,7-dioxo-8-(quinolin-8-ylmethyl)octahydro-1H-pyrazino[2,1-c][1,2,4]triazine-1-carboxamide]					to a lesser extent	inhibits HIV in a dose dependent manner	substantially facilitated differentiation
